The source of these data is patent US20230114728A1 (Venatorx Pharmaceuticals, Inc., priority 2019, published 2023).

Converted amounts (≈) assume the structure as drawn.

What all share (experiment): Broth microdilution MIC in CAMHB
Common to all, as to format: cell-based
For orientation: Broth dilution looks for growth in wells or tubes with falling amounts of substance.

The subject of one experiment is E. coli AG100. The settings on record: Escherichia coli; MHB; wild-type parent strain E. coli AG100; read-out: Minimum Inhibitory Concentration, E. coli AG100. The procedure:
(§1) Example III: In Vitro Antibacterial Assays
(§2) To determine the ability of test compounds to inhibit the growth of bacterial strains, classic cell based broth microdilution minimum inhibitory concentration (MIC) assays were employed. MIC assays are performed according to CLSI methods except where otherwise noted (CLSI, 2018 and CLSI, 2019). The reference type strain E. coli ATCC 25922; the wild-type parent strain E. coli AG100; the hyper-permeable E. coli 901C and E. coli D22; and the E. coli AG100A strain lacking the acrAB efflux pump encoding genes were used to determine the ability of the PBP inhibitors to penetrate the outer membrane of gram-negative bacteria and inhibit bacterial growth. […] The P. aeruginosa ATCC 27853 and A. baumannii ATCC 19606, along with the hyper-permeable P. aeruginosa ATCC 35151 and an engineered efflux pump-compromised strain of P. aeruginosa (ΔmexAB-oprM) were used to determine the ability of PBP inhibitors to penetrate the outer membrane of P. aeruginosa and A. baumannii and assess antibacterial activity against these important gram-negative organisms.
(§3) Briefly, cryo-preserved bacterial cultures of challenge strains are streaked for isolation on appropriate agar medium, in this case cation-adjusted Mueller Hinton agar. Following incubation to allow growth of the colonies, plates are sealed with parafilm and stored refrigerated for up to two weeks. For preparation of assay inoculum and to ensure low variability, at least 5 colonies are picked from the agar plates with an inoculating loop and aseptically transferred to a culture tube containing 3 mL of cation-adjusted Mueller Hinton broth (CAMHB). The broth culture is grown for 3-5 hours at 37° C. with shaking at 200 rpm. Meanwhile, 2-fold serial dilutions of test compounds are conducted in a 96-well plate with a final volume of 75 μL per well at 2-fold the final desired concentration. After the dilution plates are set up the growing cultures are then diluted in a cuvette containing CAMHB and the optical density is measured at 600 nm. The inoculum is diluted such that 75 μL of this culture in CAMHB results in a starting bacterial concentration of 2-8×10^5 CFU/mL when added to the dilution plates. The plates are incubated for 16-20 hours for Enterobacteriaceae and Pseudomonas and 20-24 hours for Acinetobacter at 37° C. The MIC values are read visually as the lowest concentration well with no bacterial growth.

The subject of another experiment is E. coli 901C. The settings on record: Escherichia coli; MHB; hyper-permeable E. coli 901C; read-out: Minimum Inhibitory Concentration, E. coli 901C. The protocol: as §1, §2, §3
For another experiment, the system named is E. coli ATCC 25922. Conditions: Escherichia coli, ATCC25922; MHB; E. coli ATCC 25922; read-out: Minimum Inhibitory Concentration, E. coli 25922. The procedure:
as §1, §2, §3

In another experiment the test system is E. coli D22. The settings on record: Escherichia coli; MHB; hyper-permeable E. coli D22; read-out: Minimum Inhibitory Concentration, E. coli D22. The protocol:
as §1, §2, §3

Another experiment has as its system P. aeruginosa ATCC 27853. Conditions: Pseudomonas aeruginosa, ATCC27853; MHB; read-out: Minimum Inhibitory Concentration, P. aeruginosa ATCC 27853. The protocol: as §1, §2, §3
The test system of another experiment is P. aeruginosa ATCC 35151. Conditions: Pseudomonas aeruginosa, ATCC35151; MHB; hyper-permeable strain; read-out: Minimum Inhibitory Concentration, P. aeruginosa ATCC 35151. The procedure: as §1, §2, §3
The subject of experiment [1] is K. pneumoniae UMM producing SHV-5 and KPC-2. The settings on record: Klebsiella pneumoniae, read-out: Minimum Inhibitory Concentration, K. pneumoniae UMM. The protocol: as §1, §2, §3
The subject of experiment [2] is K. pneumoniae SI-117 producing VIM-1. Conditions: Klebsiella pneumoniae, read-out: Minimum Inhibitory Concentration, K. pneumoniae SI-117. The procedure:
as §1, §2, §3

Another experiment concerns A. baumannii ATCC 19606. Conditions: Acinetobacter baumannii, ATCC19606; MHB; read-out: Minimum Inhibitory Concentration, A. baumannii ATCC 19606. The procedure: as §1, §2, §3
The subject of experiment [3] is P. aeruginosa (ΔmexAB-oprM). The settings on record: Pseudomonas aeruginosa, read-out: Minimum Inhibitory Concentration, P. aeruginosa ΔmexAB-OprM. The procedure:
as §1, §2, §3

Experiment [4] deals with K. pneumoniae 848844 producing SHV-11 and KPC-2. The settings on record: Klebsiella pneumoniae, read-out: Minimum Inhibitory Concentration, K. pneumoniae 848844. The protocol:
as §1, §2, §3

In the next experiment the test system is E. coli AG100A. Conditions: Escherichia coli, read-out: Minimum Inhibitory Concentration, E. coli AG100A. The protocol:
as §1, §2, §3

With `C[C@H]1CN(CCF)C(=O)C(=O)N1C(=O)N[C@@H](C(=O)N[C@H]1Cc2cccc(C(=O)O)c2OB1O)c1ccc(O)c(F)c1F` [Example 241, (3R)-3-(2-(2,3-difluoro-4-hydroxyphenyl)-2-((S)-4-(2-fluoroethyl)-6-methyl-2,3-dioxopiperazine-1-carboxamido)acetamido)-2-hydroxy-3,4-dihydro-2H-benzo[e][1,2]oxaborinine-8-carboxylic acid], the MIC in the experiment with E. coli AG100 is 32 to 64 µg/mL (≈ 54 to 108 µM); in the experiment on E. coli 901C it was greater than 128 µg/mL; in the experiment with E. coli ATCC 25922, 8 to 16 µg/mL (≈ 13.5 to 27 µM); in the experiment with E. coli D22 it was 32 to 64 µg/mL (≈ 54 to 108 µM); with P. aeruginosa ATCC 27853, greater than 128 µg/mL; in the experiment on P. aeruginosa ATCC 35151, 2 to 4 µg/mL (≈ 3.38 to 6.75 µM). For the same compound, the MIC was less than 0.25 µg/mL in experiment [1]; 2 to 4 µg/mL (≈ 3.38 to 6.75 µM) in experiment [2]; greater than 128 µg/mL in the experiment with A. baumannii ATCC 19606; 2 to 4 µg/mL (≈ 3.38 to 6.75 µM) in [3]; 32 to 64 µg/mL (≈ 54 to 108 µM) in experiment [4]; 32 to 64 µg/mL (≈ 54 to 108 µM) in the experiment with E. coli AG100A.
For `C[C@H]1CN(CCN)C(=O)C(=O)N1C(=O)N[C@@H](C(=O)N[C@H]1Cc2cccc(C(=O)O)c2OB1O)c1ccc(O)c(F)c1F` [Example 242, (3R)-3-(2-((S)-4-(2-aminoethyl)-6-methyl-2,3-dioxopiperazine-1-carboxamido)-2-(2,3-difluoro-4-hydroxyphenyl)acetamido)-2-hydroxy-3,4-dihydro-2H-benzo[e][1,2]oxaborinine-8-carboxylic acid], the MIC with E. coli AG100 is 32 to 64 µg/mL (≈ 54.3 to 109 µM); with E. coli 901C, 32 to 64 µg/mL (≈ 54.3 to 109 µM); with E. coli ATCC 25922, 8 to 16 µg/mL (≈ 13.6 to 27.2 µM); in the experiment on E. coli D22, 8 to 16 µg/mL (≈ 13.6 to 27.2 µM); in the experiment with P. aeruginosa ATCC 27853 it was greater than 128 µg/mL; in the experiment on P. aeruginosa ATCC 35151, 0.5 to 1 µg/mL (≈ 0.848 to 1.7 µM). Moreover, the MIC in [1] is 0.5 to 1 µg/mL (≈ 0.848 to 1.7 µM); in experiment [2] it was 2 to 4 µg/mL (≈ 3.39 to 6.79 µM); in the experiment with A. baumannii ATCC 19606 it was greater than 128 µg/mL; in experiment [3], 8 to 16 µg/mL (≈ 13.6 to 27.2 µM); in experiment [4], 32 to 64 µg/mL (≈ 54.3 to 109 µM); with E. coli AG100A, 32 to 64 µg/mL (≈ 54.3 to 109 µM).
With `C[C@H]1CN(CCF)C(=O)C(=O)N1C(=O)NC(C(=O)N[C@H]1Cc2cccc(C(=O)O)c2OB1O)c1cc(F)c(O)c(F)c1F` (stereo partly drawn) [Example 248], the MIC with E. coli AG100 was 32 to 64 µg/mL (≈ 52.4 to 105 µM); with E. coli 901C it was greater than 128 µg/mL; in the experiment on E. coli ATCC 25922 it was 8 to 16 µg/mL (≈ 13.1 to 26.2 µM); in the experiment with E. coli D22 it was 8 to 16 µg/mL (≈ 13.1 to 26.2 µM); in the experiment on P. aeruginosa ATCC 27853, greater than 128 µg/mL; in the experiment with P. aeruginosa ATCC 35151, 2 to 4 µg/mL (≈ 3.28 to 6.55 µM). In addition, the MIC in [1] was less than 0.25 µg/mL; in experiment [2] it was 0.5 to 1 µg/mL (≈ 0.819 to 1.64 µM); with A. baumannii ATCC 19606, greater than 128 µg/mL; in [3], 8 to 16 µg/mL (≈ 13.1 to 26.2 µM); in experiment [4], 32 to 64 µg/mL (≈ 52.4 to 105 µM); with E. coli AG100A, 32 to 64 µg/mL (≈ 52.4 to 105 µM).
As for `O=C(O)c1cccc2c1OB(O)[C@@H](NC(=O)C(NC(=O)N1CCN(CCBr)C(=O)C1=O)c1ccc(O)c(F)c1F)C2` (stereo partly drawn) [Example 249, (3R)-3-(2-(4-(2-bromoethyl)-2,3-dioxopiperazine-1-carboxamido)-2-(2,3-difluoro-4-hydroxyphenyl)acetamido)-2-hydroxy-3,4-dihydro-2H-benzo[e][1,2]oxaborinine-8-carboxylic acid], the MIC in the experiment on E. coli AG100 was greater than 128 µg/mL; with E. coli 901C, greater than 128 µg/mL; with E. coli ATCC 25922, 32 to 64 µg/mL (≈ 50.1 to 100 µM); in the experiment on E. coli D22, 32 to 64 µg/mL (≈ 50.1 to 100 µM); in the experiment with P. aeruginosa ATCC 27853 it was greater than 128 µg/mL; with P. aeruginosa ATCC 35151, 0.5 to 1 µg/mL (≈ 0.782 to 1.56 µM). Further, the MIC in experiment [1] was less than 0.25 µg/mL; in experiment [2], 2 to 4 µg/mL (≈ 3.13 to 6.26 µM); with A. baumannii ATCC 19606, greater than 128 µg/mL; in [3], 8 to 16 µg/mL (≈ 12.5 to 25 µM); in experiment [4], 32 to 64 µg/mL (≈ 50.1 to 100 µM); in the experiment on E. coli AG100A it was 32 to 64 µg/mL (≈ 50.1 to 100 µM).
`CCN1CCN(C(=O)NC(C(=O)N[C@H]2Cc3cccc(C(=O)O)c3OB2O)c2ccc(P(=O)(O)O)cc2)C(=O)C1=O` (stereo partly drawn) [Example 250, (3R)-3-(2-(4-ethyl-2,3-dioxopiperazine-1-carboxamido)-2-(4-phosphonophenyl)acetamido)-2-hydroxy-3,4-dihydro-2H-benzo[e][1,2]oxaborinine-8-carboxylic acid]: the MIC in the experiment with E. coli AG100 was greater than 128 µg/mL; in the experiment on E. coli 901C, greater than 128 µg/mL; in the experiment on E. coli ATCC 25922, 32 to 64 µg/mL (≈ 54.4 to 109 µM); with E. coli D22 it was 32 to 64 µg/mL (≈ 54.4 to 109 µM); with P. aeruginosa ATCC 27853 it was greater than 128 µg/mL; in the experiment on P. aeruginosa ATCC 35151, 2 to 4 µg/mL (≈ 3.4 to 6.8 µM). Besides, the MIC is less than 0.25 µg/mL in experiment [1]; 2 to 4 µg/mL (≈ 3.4 to 6.8 µM) in experiment [2]; 32 to 64 µg/mL (≈ 54.4 to 109 µM) in the experiment with A. baumannii ATCC 19606; 8 to 16 µg/mL (≈ 13.6 to 27.2 µM) in experiment [3]; greater than 128 µg/mL in experiment [4]; greater than 128 µg/mL in the experiment on E. coli AG100A.
On to `Nc1nc(C(=O)NC(C(=O)N[C@H]2Cc3cccc(C(=O)O)c3OB2O)c2c(F)cc(O)cc2F)cs1` (stereo partly drawn) [Example 251, (3R)-3-(2-(2-aminothiazole-4-carboxamido)-2-(2,6-difluoro-4-hydroxyphenyl)acetamido)-2-hydroxy-3,4-dihydro-2H-benzo[e][1,2]oxaborinine-8-carboxylic acid], for which the MIC is greater than 128 µg/mL with E. coli AG100; greater than 128 µg/mL in the experiment with E. coli 901C; greater than 128 µg/mL in the experiment on E. coli ATCC 25922; greater than 128 µg/mL with E. coli D22; greater than 128 µg/mL in the experiment on P. aeruginosa ATCC 27853; 2 to 4 µg/mL (≈ 3.86 to 7.72 µM) with P. aeruginosa ATCC 35151. The MIC in [1] was 2 to 4 µg/mL (≈ 3.86 to 7.72 µM); in experiment [2], 8 to 16 µg/mL (≈ 15.4 to 30.9 µM); in the experiment with A. baumannii ATCC 19606, greater than 128 µg/mL; in experiment [3] it was 32 to 64 µg/mL (≈ 61.7 to 123 µM); in [4] it was greater than 128 µg/mL; with E. coli AG100A it was greater than 128 µg/mL.
